Measured values from US20160008298A1, “XANTHOHUMOL-BASED COMPOUNDS AND COMPOSITIONS THEREOF, AND METHODS OF MAKING AND USING THE SAME” (Oregon State University, priority 2014, published 2016).

Legend:
plasma membrane = conditions: cited from earlier work
[1] = system: mitochondrial transmembrane potential in C2C12 cells; assay: JC-1 assay of mitochondrial transmembrane potential; assay type: cell-based, mouse; conditions: 2.5 μM
Method: Cells were plated at a density of 80,000 cells per well in black 96-well plates and incubated for 24 hours at 37° C. (5% CO2). They were then treated with fresh solutions of various concentrations of XN, DXN or TXN in growth medium. The final concentrations of XN, DXN, TXN were 1, 2, 5, 8, 25, 50 μM, all in quadruplicate wells, in the 96-well plates. After one hour of exposure to the compounds at 37° C. (5% CO2), the cells were treated with 10 μL of a JC-1 staining solution (freshly prepared by diluting 11 fold 100 μL of the JC-1 agent furnished from the assay kit). After 15 to 30 minutes of incubation (37° C., 5% CO2), the cells were washed three times with the Cell-Based Assay Buffer (prepared by dissolving three buffer tablets of the kit in 300 mL of MilliQ water). The plates were then analyzed by a fluorescent plate reader (SpectraMax Gemini XS) at 560-595 nm and 485-535 nm.
JC-1 can selectively enter into mitochondria and reversibly change color from green to red as the membrane potential increases. In healthy cells with high mitochondrial transmembrane potential, JC-1 spontaneously forms complexes known as J-aggregates with intense red fluorescence with excitation and emission at 560 nm and 595 nm, respectively. […] The ratio of fluorescence intensity of J-aggregates to fluorescence intensity of J-monomers can be used as an indicator of cell heath or mitochondrial state. […] A decrease in the values of the ratios compared to the control is indicative of an alteration in the potential across the mitochondrial membrane.

mice = conditions: mouse; cited from earlier work
[2] = system: C2C12 skeletal muscle cells; assay: Seahorse OCR and ECAR measurements after oligomycin; assay type: cell-based, mouse; conditions: oligomycin 1 μM; for ECAR plateau after injection of oligomycin: % pre oligomycin values
Method: OCR and ECAR measurements were performed with a Seahorse XF 24 Analyzer (Seahorse Bioscience). Cells were plated 24 hours prior to measurements at a density of 40,000 cells per well within growth medium in a 24-well plate. The cells were then allowed to adhere for 24 hours (37° C., 5% CO2). Prior to the assay, the cells were washed with freshly prepared running media consisting of Seahorse XF Assay medium (Seahorse Bioscience, North America, USA), 10 mM glucose and 1 mM sodium pyruvate. The pH of the medium was adjusted to 7.4 with 1 M NaOH. The cells were then equilibrated for one hour at 37° C. without CO2. The compounds were injected during the assay; OCR and ECAR were measured at 9 minutes measurement intervals. The solutions of oligomycin, FCCP, XN, DXN and TXN were freshly prepared in running medium. The final concentrations in the wells were: 1 μM for oligomycin, 5 μM for XN, DXN and TXN and 2, 5, 8, 25 μM for the dose response experiments with DXN. Ethanol was added to the control wells not to exceed a final concentration of 0.1%. All the compounds were tested in quadruplicate on the 24-well plate. XN is highly non-polar and FBS can be used to dissolve XN. Thus, XN, DXN and TXN were first dissolved in ethanol and the resulting solutions were diluted 100-fold in running medium containing 1% of FBS. After a further 10-fold dilution into the media in wells, only 0.1% of FBS was present during OCR measurements. […] The concentration of oligomycin and the cell density used were selected based on preliminary experiments.
Seahorse data were analyzed in SAS 9.2 (SAS Institute Inc., Cary, N.C.). To show a consistent baseline, OCR values (in pmol/min/mg protein) and ECAR values (in mpH/min/mg protein) for each value were divided prior to statistical analysis by the average of the four pre oligomycin treatment values (0, 8, 17, and 25 minutes) for the corresponding well and are shown as % pre oligomycin values. The original scale for OCR and for ECAR values was utilized for the OCR/ECAR ratio (in pMol/mpH). To account for repeated measures within wells over time, a repeated-measures-in-time design using ANOVA procedures in PROC MIXED was used. Fixed effects in the model were treatment (control, 2 μM DXN, 5 μM XN, 5 μM DXN, and 5 μM TXN for the compound study and control, 2, 5, 8, and 25 μM DXN for the DXN dosage study), time (0, 8, 17, 25, 34, 43, 52, 60, 69, 78, 86, and 95 minutes), and their interaction. The random effect was the experiment (5 experiments for the compound study and 3 experiments for the DXN dosage study). To account for repeated measures within wells over time, a first order homogeneous variance-covariance matrix [AR(1)] was fitted for each well. Using the ESTIMATE statement, a priori contrasts were constructed by comparing the changes in compound treated cells from the last two time points prior to compound treatment (average 52 and 60 minutes) to the changes in control cells during the same time period. This was done for each compound and dosage for 69, 78, 86, and 95 minutes separately and for all four time points combined. […] A P-value of 0.05 was considered statistically significant and is shown as star in the graphs (FIG. 5).

N#CC(C#N)=NNc1ccc(OC(F)(F)F)cc1 [FCCP, carbonyl cyanide-4-(trifluoromethoxy)phenylhydrazone, reference compound]
concentration from which the plasma membrane is depolarized (plasma membrane): above 2.5 μM | ratio value of aggregates to monomers (JC-1, percent of control) [1]: 33.0±5.6%

O=[N+]([O-])c1ccc(O)c([N+](=O)[O-])c1 [dinitrophenol, reference compound]
LD50 (mice): 45 mg/kg

CC[C@H]1/C=C/C=C/C[C@@H](C)[C@H](O)[C@@](C)(O)C(=O)[C@@H](C)[C@H](O)[C@@H](C)C(=O)[C@@H](C)[C@H](O)[C@@H](C)/C=C/C(=O)O[C@@H]2[C@H](C)[C@H](CC1)O[C@]1(CC[C@H](C)[C@H](C[C@@H](C)O)O1)[C@H]2C [oligomycin, reference compound]
residual OCR after oligomycin ([2]; DXN dosage experiment): 51.4±6.3% | ECAR plateau after injection of oligomycin ([2]; DXN dosage study): 151.1±3.4% | ECAR plateau after injection of oligomycin ([2]; compound study): 160.1±5.1%
